Legend:
Myeloperoxidase [1] = molecular target: T1, Myeloperoxidase (Homo sapiens, UniProt P05164); experiment: MPO Chlorination (APF) Assay : MPO chlorination activity was measured in 100 mM KPi (pH 7.4) by utilizing the non-fluorescent reagent Aminophenyl fluorescein (APF, Invitrogen catalog #A36003). APF is cleaved by (—OCl) to yield the fluorescent compound fluorescein. […] Enzyme, inhibitor, and chloride were preincubated for ten minutes at rt.After the ten minute preincubation, 25 μL of an APF mixture containing […], 120 mM NaCl and 10 μM H2O2 was added to the plate using the internal dispensing system of a Hammatsu FDSS 6000. […] IC50 values for inhibitors were calculated by taking the slope of the linear portion of the kinetic measurement (20 seconds to ˜80-120 secs).IC50 values were calculated by determining the slope of the linear portion of the kinetic trace (180-540 secs), and using that calculated slope to determine % inhibition occurring at each concentration of inhibitor using the following equation:Y = A + B - A 1 + ( C / x ) Dwhere A=minimal Y value (activity level of inhibited sample), B=maximal Y value (activity level of uninhibited sample), C=Log IC50, D=Hill Slope, x=concentration of inhibitor.
T1 sequence (P05164 whole entry): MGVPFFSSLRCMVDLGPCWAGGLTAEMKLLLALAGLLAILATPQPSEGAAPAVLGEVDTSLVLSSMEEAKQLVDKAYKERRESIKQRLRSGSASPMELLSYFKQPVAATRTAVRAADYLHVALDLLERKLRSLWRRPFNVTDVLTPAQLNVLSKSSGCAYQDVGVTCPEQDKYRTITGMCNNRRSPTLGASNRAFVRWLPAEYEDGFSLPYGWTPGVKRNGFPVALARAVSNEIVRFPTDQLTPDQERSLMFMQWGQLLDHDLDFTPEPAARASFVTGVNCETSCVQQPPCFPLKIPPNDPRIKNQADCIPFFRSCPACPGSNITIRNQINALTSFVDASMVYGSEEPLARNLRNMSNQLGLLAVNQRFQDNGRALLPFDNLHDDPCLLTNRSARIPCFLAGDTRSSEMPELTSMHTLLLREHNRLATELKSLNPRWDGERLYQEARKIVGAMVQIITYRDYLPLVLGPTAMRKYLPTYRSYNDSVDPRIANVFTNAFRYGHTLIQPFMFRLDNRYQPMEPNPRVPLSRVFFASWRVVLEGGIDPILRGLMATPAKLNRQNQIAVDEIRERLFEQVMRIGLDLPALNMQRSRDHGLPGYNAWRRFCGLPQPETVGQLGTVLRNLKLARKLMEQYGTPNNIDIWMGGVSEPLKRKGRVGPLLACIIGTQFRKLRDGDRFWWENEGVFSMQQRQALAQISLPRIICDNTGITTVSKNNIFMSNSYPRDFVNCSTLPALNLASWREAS

Myeloperoxidase [2] = molecular target: T1, Myeloperoxidase; experiment: MPO Peroxidation (Amplex Red) Assay: MPO peroxidation activity was measured in 100 mM KPi (pH 7.4) by utilizing the non-fluorescent reagent Amplex Red (Invitrogen catalog #A12222) which can be oxidized to the highly fluorescent resorufin. Amplex Red is oxidized by the peroxidase action of MPO to resorufin. […] Enzyme and compound were preincubated for ten minutes at rt.After the ten minute preincubation, 25 μL of an Amplex Red mixture containing 200 μM Amplex Red and 10 mM H2O2 was added to the plate.

Row | IC50 (Myeloperoxidase [2]) | SMILES | IC50 (Myeloperoxidase [1])
1 | – | Cn1cc(CSc2cc(N)nc3[nH]nnc23)c(C(F)(F)F)n1 | < 60 nM
2 | – | N#Cc1ccc(Cl)c(CSc2cc(N)nc3[nH]nnc23)c1 | < 60 nM
3 | – | N#Cc1c(F)cccc1CSc1cc(N)nc2[nH]nnc12 | < 60 nM
4 | – | N#Cc1cccc(Br)c1CSc1cc(N)nc2[nH]nnc12 | < 60 nM
5 | 30 nM | Cc1nn(C)c(C)c1CSc1cc(N)nc2[nH]nnc12 | 80 nM
6 | – | Cn1ncc(CSc2cc(N)nc3[nH]nnc23)c1C(F)(F)F | < 60 nM
7 | – | CCc1nn(C)c(Cl)c1CSc1cc(N)nc2[nH]nnc12 | < 60 nM
8 | – | Cn1nc(C(F)(F)F)c(CSc2cc(N)nc3[nH]nnc23)c1F | < 60 nM

From ChEMBL document CHEMBL5728406, “Thioether triazolopyridine and triazolopyrimidine inhibitors of myeloperoxidase” (2021)
